Experimental data reported in PMC7113773 (Antiviral Research, 2014).

Tested on: NA (H275Y), OSV-resistant mutant of influenza H1N1 (A/California/04/2009)
Format: biochemical, influenza A virus

SMILES: Cc1cc2c(c(=S)[nH]1)C(=O)O/C2=C\c1c[nH]c2ccc(F)cc12 [Compound 15a, (Z)-1-((5-Fluoro-1H-indol-3-yl)methylene)-6-methyl-4-thioxo-4,5-dihydrofuro[3,4-c]pyridin-3(1H)-one]
- function of oseltamivir-resistant NA (H275Y): suppressed
